pIC50: −log10 of the molar value. Activity calls are given as the source filed them. No cut-off for these calls is given here.
What was measured:
[1] = Cytotoxicity against human HL60 cells after 48 hrs by CCK8 assay; format: functional, cell-based; conditions: HL-60, 48 h
[2] = Cytotoxicity against human U937 cells after 48 hrs by CCK8 assay; format: functional, cell-based; conditions: U-937, 48 h
HL-60 = test: Induction of apoptotic morphological changes in human HL60 cells at 50 uM after 48 hrs by Hoechst 33342 staining; format: functional, cell-based
U-937 = test: Induction of apoptotic morphological changes in human U937 cells at 50 uM after 48 hrs by Hoechst 33342 staining; format: functional, cell-based
Huh-7 = test: Induction of apoptosis in human HuH7 cells assessed as increase of casapase-3 activity after 1 hr by DEVD-pNA cleavage assay relative to control; format: functional

Row | Compound | pIC50 [1] | pIC50 [2] | Activity (HL-60) | Activity (U-937) | fold change (FC) (Huh-7)
1 | OC1OC[C@H](Cc2ccc3c(c2)OCO3)[C@H]1Cc1ccc2c(c1)OCO2 (stereo partly specified) | 4.42 | 4.80 | Active | Active | –
2 | c1cc2c(cc1C[C@H]1COC[C@@H]1Cc1ccc3c(c1)OCO3)OCO2 | 4.29 | 4.40 | – | Active | –
3 | O=C1OC[C@H](Cc2ccc3c(c2)OCO3)[C@H]1Cc1ccc2c(c1)OCO2 [HINOKININ] | 4.50 | 4.98 | Active | Active | 2
4 | C=CCc1ccc2c(c1)OCO2 [SAFROLE] | 4.27 | 4.28 | – | – | –
5 | OCC(O)Cc1ccc2c(c1)OCO2 (stereo unspecified) [SAFROLGLYCOL] | 4.22 | 4.29 | – | – | –
